Series [1] is described as follows: refractive index (Na D-line) (dimensionless). The note with it: 293.1 K; 101.33 kPa; Liquid; Standard Abbe refractometry.
For series [2] the following is noted: Liquid; for mass density: 101.33 kPa; for Normal boiling temperature: Fischer boiling-point apparatus.

Molecules are shown by their SMILES. ± gives the expanded uncertainty stated by the source.

Usually refractive index stands for a measure of how strongly the sample bends light. Broadly, the mass density is mass per unit of volume. Regarding `CCCC#N` [butanenitrile], the refractive index in series [1] came out at 1.384 ± 0.0011. In addition, the mass density in series [2] (293.1 K) is reported as 793.7 ± 1.1 kg/m3. Moreover, the Normal boiling temperature in series [2] was 117.40 ± 0.2 °C.

As for `CCC(=O)O` [propanoic acid], the refractive index in series [1] amounted to 1.3811 ± 0.0011. Besides, in series [2] (298.1 K), the mass density is reported as 988 ± 0.5 kg/m3. For the same compound, in series [2], the Normal boiling temperature is 140.90 ± 0.2 °C.

For `CC(=O)CC(C)C` [4-methylpentan-2-one], the refractive index in series [1] turned out to be 1.3959 ± 0.0011. Besides, the mass density in series [2] (298.1 K) was 796.2 ± 1.1 kg/m3. Further, the Normal boiling temperature in series [2] came out at 116.30 ± 0.2 °C.

Turning to `CC(=O)O` [acetic acid], the refractive index in series [1] is reported as 1.3721 ± 0.0011. Besides, the mass density in series [2] (298.1 K) stood at 1044.3 ± 0.5 kg/m3. Also, in series [2], the Normal boiling temperature turned out to be 117.70 ± 0.2 °C.

Consider `CC(=O)OCc1ccccc1` [benzyl ethanoate], for which the refractive index in series [1] was determined as 1.5235 ± 0.0011. For the same compound, in series [2] (293.1 K), the mass density worked out at 1055.2 ± 0.9 kg/m3. Further, the Normal boiling temperature in series [2] worked out at 213.10 ± 0.2 °C.

For the origin of these results see the NIST ThermoML archive (doi:10.1021/je050527x).
